Consider three molecules from patent publication US4399139A, “5,6-Dihydro-11-alkylene-morphanthridin-6-ones, their pharmaceutical compositions and method of use” (BASF Aktiengesellschaft, priority 1981, dated 1983).

One data set has as its system gastric acid secretion. The following applies: for ED (pH increase of 0.75): Rattus norvegicus, sc, 1 h, read-out: Inhibition of gastric acid secretion, ED 0.75; for Inhibition of gastric acid secretion, R.E. (relative effectiveness): rat, subcutaneously, relative to pirenzepine = 1.0.
Data set [1] in a line: Anti-cholinergic side-effect: inhibition of carbachol-stimulated salivation in the rat. On the set-up: species or system Sprague-Dawley rats. As to conditions: in vivo, sc; for ED50 at 1 h: administered subcutaneously, carbachol 0.6 mg/kg intraperitoneally after 1 hour, read-out: Salivation-inhibiting action, ED 50; for selectivity ratio: subcutaneously, ratio of salivation-inhibiting to secretion-inhibiting dose, read-out: Salivation-inhibiting action, ED 50/ED 0.75. Here is the method: (§1) After 1 hour, the pupil diameter is measured. The animals are then given 0.6 mg/kg of carbachol intraperitoneally. After 5 minutes, the saliva secreted as a result of stimulation by carbachol is blotted up with 4 cm wide strips of universal indicator paper (from Merck). The surface area of the paper colored blue by the alkaline saliva serves as a measure of the salivary secretion. The test substance is taken to inhibit salivary secretion if the blue area of the paper is more than 50% smaller than in the case of the controls. Evaluation of the linear relationships between the logarithms of the dose and the frequency of inhibition of salivation is carried out alternatively by Probit analysis.

The next data set deals with ulcerous lesions. In words: Anti-ulcerogenic effect in the rat (reserpine/indomethacin/cold induced ulcers). Type of data set: in vivo, Sprague-Dawley rats. The following applies: for Anti-ulcerogenic effect, R.E. (relative effectiveness): orally, relative to pirenzepine = 1.0; for ED50: po, 6 h, administered orally, dose which reduces the ulcerated surface area by 50%, read-out: Anti-ulcerogenic effect, ED 50%. How it is done:
To examine the anti-ulcerogenic effect, groups of 10 female Sprague-Dawley rats (weighing 160-180 g) are given 1 mg/kg of reserpine intraperitoneally, and are then left for 18 hours without food (but with water ad libitum). After this time, the animals are given 21.5 mg/kg of indomethacin intraperitoneally and the test substance orally; they are then kept for 6 hours at 8° C., after which they are killed. The stomachs are removed and the surface area of ulcerous lesions is determined.

A further data set relates to pupil diameter. Nature of the data set: Anti-cholinergic side-effect: mydriasis (pupil diameter) in the rat. It is filed as in vivo, Sprague-Dawley rats. As to conditions: administered subcutaneously, 1 hour, dose which increases the pupil diameter by 2 mm. How it is done:
as §1, with “To determine anti-cholinergic side-effects (mydriasis, inhibition of salivation), groups of from 5 to 10 female Sprague-Dawley rats (160-200 g) are given the test substance subcutaneously. After 1” for “After 1”, “Probit analysis. The ED 50 is taken to be the dose at which the relative frequency of inhibition of salivation is 50%.” for “Probit analysis.”
(§2) If there is a mydriatic effect, there is a linear regression between the logarithm of the dose and the increase in pupil diameter in mm, from which the ED 2 mm, ie. the dose which increases the pupil diameter by 2 mm, is calculated.

Assay in data set [2]: as above
Type of data set: in vivo, Sprague-Dawley rats. As to conditions: in vivo, sc, subcutaneously, ratio of mydriatic to secretion-inhibiting dose, read-out: Mydriatic action, ED 2 mm / ED 0.75. Here is the method: as §1, with “To determine anti-cholinergic side-effects (mydriasis, inhibition of salivation), groups of from 5 to 10 female Sprague-Dawley rats (160-200 g) are given the test substance subcutaneously. After 1” for “After 1”, “Probit analysis. The ED 50 is taken to be the dose at which the relative frequency of inhibition of salivation is 50%.” for “Probit analysis.”
as §2

Each structure is given as a SMILES string.

Description for gastric acid secretion: The inhibition of gastric acid secretion manifests itself in a rise in the pH of the gastric mucosa. It is tested on groups of 5 conscious female Sprague-Dawley rats (160-180 g). The animals are kept without food (but with water ad libitum) for 48 hours and are then pretreated with varying doses of the test substances, administered subcutaneously. After 1 hour, they are narcotized with Na hexobarbital (46.4 mg/kg, given intravenously). A pH electrode (Philips Special Electrode, type CJP) is then introduced into the stomach and the pH at the surface of the gastric mucosa is measured (pH in the untreated animals is 1.40±0.02; N=200). The ED 0.75, ie. the dose which causes an increase in pH averaging 0.75, compared to the pH in the untreated control animals, is determined from the linear regression between logarithm of administered dose and increase in pH.

With `CN1CCN(C(=O)C=C2c3ccccc3NC(=O)c3ccccc32)CC1` (mixture of isomers) [Example 1 cis/trans, cis,trans-11-(4-methyl-piperazin-1-yl)-carboxamidomethylene-5,6-dihydromorphanthridin-6-one], in the data set with gastric acid secretion, the ED (pH increase of 0.75) came to 0.055 mg/kg and the “Inhibition of gastric acid secretion, R.E. (relative effectiveness)” value is recorded as above 1.6. Besides, in data set [1], the ED50 at 1 h was 99 mg/kg and the selectivity ratio was 1800. Also, in the data set on ulcerous lesions, the “Anti-ulcerogenic effect, R.E. (relative effectiveness)” value amounted to 3.1 and the ED50 came to 2.1 mg/kg. Also, the “Mydriatic action, ED 2 mm” value in the data set on pupil diameter was above 215 mg/kg. In data set [2], the selectivity ratio is above 3900.
Consider `CN1CCN(C(=O)/C=C2/c3ccccc3NC(=O)c3ccccc32)CC1` [Example 1 cis, cis-11-(4-methyl-piperazin-1-yl)-carboxamidomethylene-5,6-dihydro-morphanthridin-6-one], for which, in the data set with gastric acid secretion, the ED (pH increase of 0.75) stood at 0.032 mg/kg and the “Inhibition of gastric acid secretion, R.E. (relative effectiveness)” value turned out to be 2.7. In addition, in data set [1], the ED50 at 1 h stood at 50 mg/kg and the selectivity ratio was found to be 1600. Further, in the data set on ulcerous lesions, the “Anti-ulcerogenic effect, R.E. (relative effectiveness)” value is 3.8 and the ED50 stood at 1.7 mg/kg. Also, the “Mydriatic action, ED 2 mm” value in the data set on pupil diameter is on record as 198 mg/kg. Moreover, the selectivity ratio in data set [2] turned out to be 6200.
With `CN1CCN(CC(=O)N2c3ccccc3C(=O)Nc3cccnc32)CC1` [Pirenzepine, 5,11-dihydro-11-[(4-methyl-piperazin-1-yl)-acethyl]-6H-pyrido-[2,3,b][1,4]-benzodiazepin-6-one, reference compound], in the data set on gastric acid secretion, the ED (pH increase of 0.75) amounted to 0.086 mg/kg. Also, in data set [1], the ED50 at 1 h was found to be 2 mg/kg. Besides, in the data set on ulcerous lesions, the ED50 turned out to be 6.5 mg/kg. Further, the “Mydriatic action, ED 2 mm” value in the data set with pupil diameter is 1.6 mg/kg.
